Experimental data: ChEMBL document CHEMBL1649389, “Microwave supported synthesis of some novel 1,3-diarylpyrazino[1,2-a]benzimidazole derivatives and investigation of their anticancer activities” (2011)

How the values were obtained:
Assay type in all cases: functional
[1] = Cytotoxicity against human leukemia cells assessed as cell growth after 48 hrs by SRB assay
NSCLC = test: Cytotoxicity against human NSCLC cells assessed as cell growth after 48 hrs by SRB assay
[2] = Cytotoxicity against human colon cancer cells assessed as cell growth after 48 hrs by SRB assay; conditions: Cancer cell lines
[3] = Cytotoxicity against human CNSC cells assessed as cell growth after 48 hrs by SRB assay
[4] = Cytotoxicity against human melanoma cells assessed as cell growth after 48 hrs by SRB assay
[5] = Cytotoxicity against human ovarian cancer cells assessed as cell growth after 48 hrs by SRB assay; conditions: Cancer cell lines
[6] = Cytotoxicity against human renal cancer cells assessed as cell growth after 48 hrs by SRB assay; conditions: Cancer cell lines
[7] = Cytotoxicity against human prostate cancer cells assessed as cell growth after 48 hrs by SRB assay; conditions: Cancer cell lines
[8] = Cytotoxicity against human breast cancer cells assessed as cell growth after 48 hrs by SRB assay; conditions: Cancer cell lines

Structure (SMILES) | GI50 [1] | GI50 (NSCLC) | GI50 [2] | GI50 [3] | GI50 [4] | GI50 [5] | GI50 [6] | GI50 [7] | GI50 [8]
O=C(Cn1c(C(=O)c2ccccc2)nc2ccccc21)c1ccc(F)cc1 | 1.41 µM | 18.6 µM | 3.55 µM | 8.51 µM | 4.57 µM | 10.7 µM | 2.75 µM | 13.5 µM | 3.98 µM
COc1ccc(C(=O)Cn2c(C(=O)c3ccc(OC)cc3)nc3ccccc32)cc1 | 0.741 µM | 15.1 µM | 1.26 µM | 3.31 µM | 3.24 µM | 3.02 µM | 3.89 µM | 2.95 µM | 2.4 µM
COc1ccc(C(=O)c2nc3ccccc3n2CC(=O)c2ccc(Cl)cc2)cc1 | 0.724 µM | 14.5 µM | 2.51 µM | 3.39 µM | 2.45 µM | 5.25 µM | 3.72 µM | 3.02 µM | 3.47 µM
O=C(Cn1c(C(=O)c2ccccc2)nc2ccccc21)c1ccccc1 | 52.5 µM | 69.2 µM | 63.1 µM | 83.2 µM | 100 µM | 100 µM | 87.1 µM | 72.4 µM | 9.33 µM
COc1ccc(C(=O)Cn2c(C(=O)c3ccc(Cl)cc3)nc3ccccc32)cc1 | 2.57 µM | 18.6 µM | 5.01 µM | 16.6 µM | 9.55 µM | 17.8 µM | 14.1 µM | 24 µM | 6.17 µM
COc1ccc(C(=O)Cn2c(C(=O)c3ccccc3)nc3ccccc32)cc1 | 0.724 µM | 9.33 µM | 1.51 µM | 3.98 µM | 2.95 µM | 3.63 µM | 3.24 µM | 3.24 µM | 2.24 µM
N[C@@H](Cc1ccc(N(CCCl)CCCl)cc1)C(=O)O | 3.31 µM | 6.76 µM | 7.76 µM | 7.59 µM | 8.32 µM | 6.61 µM | 10.2 µM | 32.4 µM | 16.2 µM
